From patent US20080269237A1, “CARBAMIC ACID COMPOUNDS COMPRISING A PIPERAZINE LINKAGE AS HDAC INHIBITORS” (TOPOTARGET UK LIMITED, priority 2002, published 2008) come the findings set out here.

Broadly, the melting point is the temperature of the solid-liquid transition.

The molecule `Cc1cccc(N2CCN(C(=O)CCCCCCC(=O)NO)CC2C)c1` (stereo not shown) [PX118899, 8-(3-Methyl-4-m-tolyl-piperazin-1-yl)-8-oxo octanoic acid hydroxyamide] had a melting point of 75 to 76 °C.

Take `O=C(CCCCCCC(=O)N1CCN(C(=O)Cc2csc3ccccc23)CC1)NO` [PX118967, 8-{4-[2-(1-Benzothiophen-3-yl)acetyl]-1-piperazinyl}-N-hydroxy-8-oxooctanamide]: the melting point is 140 to 141 °C.

Take `CN(C)c1ccc(CCN2CCN(C(=O)CCCCCCC(=O)NO)CC2)cc1` [PX118928, 8-{4-[4-(Dimethylamino)phenethyl]-1-piperazinyl}-N-hydroxy-8-oxooctanamide]: the melting point is 103 to 105 °C.

The molecule `C/C(=N\O)c1ccc(N2CCN(C(=O)CCCCCCC(=O)NO)CC2)cc1` [PX118903, 8-{4-[4-(1-Hydroxyimino-ethyl)-phenyl]-piperazin-1-yl}-8-oxo octanoic acid hydroxyamide] came in with a melting point of 147 to 147.5 °C.

`O=C(CCCCCCC(=O)N1CCN(C(=O)COc2ccc3ccccc3c2)CC1)NO` [PX118929, N-Hydroxy-8-{4-[2-(2-naphthyloxy)acetyl]-1-piperazinyl}-8-oxooctanamide] registered a melting point of 139 to 140.5 °C.

Regarding `O=C(CCCCCCC(=O)N1CCN(c2cccc(C(F)(F)F)c2)CC1)NO` [PX118860, 8-Oxo-8-[4-(3-trifluoromethylphenyl)-piperazin-1-yl]-octanoic acid hydroxyamide], the melting point was in the range of 126 to 128 °C.

For `O=C(/C=C/c1cccc(S(=O)(=O)N2CCN(c3ccccc3F)CC2)c1)NO` [PX118877, (E)-3-(3-{[4-(2-Fluorophenyl)-1-piperazinyl]sulfonyl}phenyl)-N-hydroxy-2-propenamide], the melting point is 176 °C.

On to `O=C(CCCCCCC(=O)N1CCN(c2ccccc2)CC1)NO` [PX117402, 8-Oxo-8-(4-phenyl-piperazin-1-yl)-octanoic acid hydroxyamide], for which the melting point lay within 134 to 136 °C.

Turning to `O=C(/C=C/c1ccc(S(=O)(=O)N2CCN(c3ccccc3F)CC2)cc1)NO` [PX118891, (E)-3-(4-{[4-(2-Fluorophenyl)-1-piperazinyl]sulfonyl}phenyl)-N-hydroxy-2-propenamide], the melting point was 196 to 197 °C.

`O=C(CCCCCC(=O)N1CCN(C(=O)c2c[nH]c3ccccc23)CC1)NO` [PX118969, N-Hydroxy-7-[4-(1H-indol-3-ylcarbonyl)-1-piperazinyl]-7-oxoheptanamide] registered a melting point of 86 to 88 °C.

The molecule `COc1ccc2[nH]cc(CCN3CCN(C(=O)CCCCCCC(=O)NO)CC3)c2c1.O=C(O)C(=O)O` had a melting point of 122 to 125 °C.

The molecule `O=C(CCCCCCC(=O)N1CCN(CC(c2ccccc2)c2ccccc2)CC1)NO` [PX118909, 8-[4-(2,2-Diphenyl-ethyl)-piperazin-1-yl]-8-oxo octanoic acid hydroxyamide] had a melting point of 117 to 118 °C.

Turning to `C=C(Cl)c1ccc(N2CCN(S(=O)(=O)c3cccc(/C=C/C(=O)NO)c3)CC2)cc1` [PX118933, (E)-3-[3-({4-[4-(1-Chlorovinyl)phenyl]-1-piperazinyl}sulfonyl)phenyl]-N-hydroxy-2-propenamide], the melting point was 203 °C (dec.).

The molecule `O=C(/C=C/c1cccc(S(=O)(=O)N2CCN(C/C=C/c3ccccc3)CC2)c1)NO` [PX118870, (E)-N-Hydroxy-3-[3-({4-[(E)-3-phenyl-2-propenyl]-1-piperazinyl}sulfonyl)phenyl]-2-propenamide] gave a melting point of 178 °C.

`O=C(CCCCCCC(=O)N1CCN(c2cccc(F)c2)CC1)NO` [PX118859, 8-[4-(3-Fluorophenyl)-piperazin-1-yl]-8-oxooctanoic acid hydroxyamide] had a melting point of 149 to 150.5 °C.

The molecule `O=C(/C=C/c1cccc(S(=O)(=O)N2CCN(c3ncccn3)CC2)c1)NO` [PX118894, (E)-N-Hydroxy-3-(3{-[4-(2-pyrimidinyl)-1-piperazinyl]sulfonyl}-phenyl)-2-propenamide] yielded a melting point of 200 °C.

For `O=C(CCCCCCC(=O)N1CCN(CCc2ccc3ccccc3c2)CC1)NO` [PX118908, 8-[4-(2-Naphthalen-2-yl-ethyl)-piperazin-1-yl]-8-oxo octanoic acid hydroxyamide], the melting point was 118 to 120 °C.

In the case of `O=C(/C=C/c1cccc(S(=O)(=O)N2CCN(CC(c3ccccc3)c3ccccc3)CC2)c1)NO` [PX118913, (E)-3-(3-{[4-(2,2-Diphenylethyl)-1-piperazinyl]sulfonyl}phenyl)-N-hydroxy-2-propenamide], the melting point is 117 °C (dec.).

`Cc1ccc(N2CCN(C(=O)CCCCCC(=O)NO)CC2)cc1C` [PX118994, 7-[4-(3,4-Dimethylphenyl)-1-piperazinyl]-N-hydroxy-7-oxoheptanamide] displayed a melting point of 119.5 to 120.5 °C.

As to `O=C(/C=C/c1cccc(S(=O)(=O)N2CCN(Cc3ccc4c(c3)OCO4)CC2)c1)NO` [PX118873, (E)-3-(3-{[4-(1,3-Benzodioxol-5-ylmethyl)-1-piperazinyl]sulfonyl}-phenyl)-N-hydroxy-2-propenamide], the melting point came out at 172 °C.

In turn, `O=C(CCCCCC(=O)N1CCN(CCCc2c[nH]c3ccccc23)CC1)NO` [PX118970, N-Hydroxy-7-{4-[3-(1H-indol-3-yl)propyl]-1-piperazinyl}-7-oxoheptanamide] yielded a melting point of 165 to 166 °C.

In the case of `O=C(/C=C/c1cccc(S(=O)(=O)N2CCN(Cc3ccccc3)CC2)c1)NO` [PX118874, (E)-3-{3-[(4-Benzyl-1-piperazinyl)sulfonyl]phenyl}-N-hydroxy-2-propenamide], the melting point was determined as 185 °C.

For `O=C(/C=C/c1ccc(S(=O)(=O)N2CCN(c3ccc([N+](=O)[O-])cc3)CC2)cc1)NO` [PX118918, (E)-N-Hydroxy-3-(4-{[4-(4-nitrophenyl)-1-piperazinyl]sulfonyl}phenyl)-2-propenamide], the melting point is 199 to 200 °C.

As for `O=C(CCCCCC(=O)N1CCN(C(=O)CCc2c[nH]c3ccccc23)CC1)NO` [PX118968, N-Hydroxy-7-{4-[3-(1H-indol-3-yl)propanoyl]-1-piperazinyl}-7-oxoheptanamide], the melting point fell in the range of 152.5 to 153.5 °C.

In turn, `O=C(/C=C/c1cccc(S(=O)(=O)N2CCN(c3ccc(Cl)c(Cl)c3)CC2)c1)NO` [PX118971, (E)-3-(3-{[4-(3,4-Dichlorophenyl)-1-piperazinyl]sulfonyl}phenyl)-N-hydroxy-2-propenamide] returned a melting point of 193 °C.

The molecule `O=C(CCCCCC(=O)N1CCN(Cc2c[nH]c3ccccc23)CC1)NO` [PX118978, N-Hydroxy-7-[4-(1H-indol-3-ylmethyl)-1-piperazinyl]-7-oxoheptanamide] showed a melting point of 65 to 67 °C.

`O=C(/C=C/c1ccc(S(=O)(=O)N2CCN(C(c3ccc(F)cc3)c3ccc(F)cc3)CC2)cc1)NO` [PX118965, (E)-3-[4-({4-[Bis(4-fluorophenyl)methyl]-1-piperazinyl}sulfonyl)phenyl]-N-hydroxy-2-propenamide] came in with a melting point of 125 to 126 °C.

`O=C(/C=C/c1cccc(S(=O)(=O)N2CCN(c3cccc(C(F)(F)F)c3)CC2)c1)NO` [PX118878, (E)-N-Hydroxy-3-[3-({4-[3-(trifluoromethyl)phenyl]-1-piperazinyl}sulfonyl)phenyl]-2-propenamide] gave a melting point of 173 °C.
